# Tests used:
# [1] = system: coxsackievirus type B4 (CB4,JVB); experiment: In vitro anti-picornavirus activity (MTT), CB4; type: cell-based; conditions: HeLa cells, MTT method, 37° C.; for IC50: Coxsackievirus
# HeLa cells = experiment: Cytotoxicity (MTT, without virus), HeLa; conditions: HeLa, no virus, incubated for 4 days
# HeLa (Ohio strain)cells = experiment: Cytotoxicity (MTT, without virus), HeLa(Ohio); conditions: HeLa(Ohio), no virus, incubated for 4 days
# [2] = system: coxsackievirus type A7 (CA7); experiment: In vitro anti-picornavirus activity (MTT), CA7; type: cell-based; conditions: HeLa-S3 cells, MTT method, 37° C.; for IC50: Coxsackievirus
# [3] = system: Poliovirus type 1 (Polio 1, Sabin); experiment: microbe, parasite or virus in culture; type: cell-based; conditions: for IC50: Enterovirus C, HeLa S3, read-out: IC50 Polio 1
# HRV 89 (41617-Gallo) = experiment: Anti-rhinovirus activity (MTT), HRV89; type: cell-based, human rhinovirus; conditions: HeLa (Ohio strain) cells, MTT method, 33° C.; for IC50: Human rhinovirus sp., HRV89, read-out: IC50 HRV89
# HRV 2 (HGP) = experiment: Anti-rhinovirus activity (MTT), HRV2; type: cell-based, human rhinovirus; conditions: HeLa (Ohio strain) cells, MTT method, 33° C.; for IC50: Human rhinovirus sp., HRV2, read-out: IC50 HRV2
# HeLa-S3 cells = experiment: Cytotoxicity (MTT, without virus), HeLa-S3; conditions: HeLa-S3, no virus, incubated for 4 days
# [4] = system: echovirus type 11 (Echo 11, Gregory); experiment: In vitro anti-picornavirus activity (MTT), Echo 11; type: cell-based; conditions: HeLa-S3 cells, MTT method, 37° C.; for IC50: Enterovirus B
# [5] = system: human rhinovirus type 1B (HRV 1B, B632); experiment: Anti-rhinovirus activity (MTT), HRV1B; type: cell-based; conditions: HeLa (Ohio strain) cells, MTT method, 33° C.; for IC50: Human rhinovirus sp., HRV1B, read-out: IC50 HRV1B
# HRV1A (E28) = experiment: Anti-rhinovirus activity (MTT), HRV1A; type: cell-based, human rhinovirus; conditions: for IC50 HRV 1A: HeLa (Ohio strain) cells, MTT method, 33° C.; for IC50: Human rhinovirus sp., HRV1A, HeLa, read-out: IC50 HRV 1A
# HRV14 (1059) = experiment: Anti-rhinovirus activity (MTT), HRV14; type: cell-based, human rhinovirus; conditions: HeLa (Ohio strain) cells, MTT method, 33° C.; for IC50: Human rhinovirus sp., HRV14, read-out: IC50 HRV 14
Structure (SMILES),melting point,IC50 CB4 [1] [µg/mL],Cytotoxicity CC50 HeLa (HeLa cells) [µg/mL],Cytotoxicity CC50 HeLa(Ohio) (HeLa (Ohio strain)cells) [µg/mL],IC50 CA7 [2] [µg/mL],IC50 Polio 1 [3] [µg/mL],IC50 HRV89 (HRV 89 (41617-Gallo)) [µg/mL],IC50 HRV2 (HRV 2 (HGP)) [µg/mL],Cytotoxicity CC50 HeLa-S3 (HeLa-S3 cells) [µg/mL],IC50 Echo 11 [4] [µg/mL],IC50 HRV1B [5] [µg/mL],further results
CCOC(=O)c1c(-c2ccccc2)n(C)c2ccc(C(C)C)cc2c1=O,164 to 165 °C,,,,,,,,,,,
CCn1c2c(c(=O)c3cc(C(C)C)ccc31)C(N)c1ccccc1-2.Cl.Cl (stereo not shown),200 °C (dec.),,,,,,,,,,,
CCn1c2c(c(=O)c3cc(C(C)C)ccc31)C(NC(C)=O)c1ccccc1-2 (stereo not shown),215 °C (dec.),,,,,,,,,,,
CCn1c2c(c(=O)c3cc(C(C)C)ccc31)C(OC)(c1ccccc1)c1ccccc1-2 (stereo not shown),237 to 239 °C,,,,,,,,,,,
CCn1c(-c2ccc(Br)s2)cc(=O)c2cc(C(C)C)ccc21 [Compound A317],,1.1,>5,>5,2.6,0.81,0.40,0.43,>5,0.35,0.82,
Cc1c(-c2cccs2)n(C)c2ccc(OCC(C)C)c(C)c2c1=O [Compound A318],,0.65,>2.5,>2.5,2.0,0.47,0.16,0.38,>2.5,0.27,0.45,
CCn1c(-c2nccs2)cc(=O)c2cc(C(C)C)ccc21 [Compound A319],,9.4,35,32,8.9,2.0,2.0,0.80,>50,0.81,1.5,
Cc1ccc(-n2c(-c3ccccc3)c(C)c(=O)c3cc(C(C)C)ccc32)cc1 [Compound A325],,>2.5,>2.5,>2.5,>2.5,>2.5,0.022,0.066,>2.5,>2.5,>2.5,
COc1ccc(-n2c(-c3ccccc3)c(C)c(=O)c3cc(C(C)C)ccc32)cc1 [Compound A326],,>2.5,>2.5,>2.5,>2.5,>2.5,0.067,0.48,>2.5,>2.5,>2.5,
CCc1ccc2c(c1)Cc1c-2n(C)c2ccc(C(C)C)cc2c1=O [Compound B8],,0.60,>1,>1,0.70,0.19,0.12,0.22,>1,0.17,0.24,IC50 HRV 1A (HRV1A (E28)): >1 µg/mL; IC50 HRV 14 (HRV14 (1059)): 0.40 µg/mL
COc1ccc2c(c1)Cc1c-2n(C)c2ccc(CC(C)C)cc2c1=O [Compound B11],,1.6,>2,>2,>2,0.45,0.31,0.34,>2,0.28,0.36,IC50 HRV 1A (HRV1A (E28)): 1.7 µg/mL; IC50 HRV 14 (HRV14 (1059)): 0.78 µg/mL
"CCn1c2c(c(=O)c3cc(C(C)C)ccc31)C(C)c1ccccc1-2 (stereo not shown) [Compound C40, 5-Ethyl-8-isopropyl-11-methyl-5,10-dihydro-11H-indeno[1,2-b]quinolin-10-one]",152 to 154 °C,,,,,,,,,,,IC50 [1]: 1.7 µg/mL; IC50 (HRV1A (E28)): > 3.3 µg/mL; IC50 [2]: > 3.3 µg/mL; IC50 [3]: 0.54 µg/mL; IC50 (HRV 89 (41617-Gallo)): 0.56 µg/mL; IC50 (HRV 2 (HGP)): 0.54 µg/mL; IC50 [4]: 0.24 µg/mL; IC50 [5]: 0.51 µg/mL; IC50 (HRV14 (1059)): 1.1 µg/mL
"CCn1c2c(c(=O)c3cc(C(C)C)ccc31)C(O)c1ccccc1-2 (stereo not shown) [Compound C43, 5-Ethyl-8-isopropyl-11-hydroxy-5,10-dihydro-11H-indeno[1,2-b]quinolin-10-one]",,,,,,,,,,,,IC50 [1]: 2.9 µg/mL; IC50 (HRV1A (E28)): > 5 µg/mL; IC50 [2]: > 5 µg/mL; IC50 [3]: 1.5 µg/mL; IC50 (HRV 89 (41617-Gallo)): 0.86 µg/mL; IC50 (HRV 2 (HGP)): 0.67 µg/mL; IC50 [4]: 0.54 µg/mL; IC50 [5]: 1.5 µg/mL; IC50 (HRV14 (1059)): 2.5 µg/mL
"CCn1c2c(c(=O)c3cc(C(C)C)ccc31)C(=NOC)c1ccccc1-2 [Compound C49, 5-Ethyl-8-isoproypl-11-methoxyimino-5,10-dihydro-11H-indeno[1,2-b]quinolin-10-one]",,2.3,,,9.2,0.52,2.1,1.7,,0.26,1.9,IC50 HRV 1A (HRV1A (E28)): >10 µg/mL; IC50 HRV 14 (HRV14 (1059)): 5.5 µg/mL
